# Reference: patent US20110040086A1, “Novel Beta-Lactam Antibiotics, Methods for Their Production, and Their Use” (DRITTE PATENTPORTFOLIO BETEILIGUNGSGESELLSCHAFT MB, priority 2007, published 2011)
# Legend:
# [1] = system: Escherichia coli SBUG 1135; assay: agar diffusion test (Test System 1, antimicrobial effect); format: cell-based; parameters: key: r = resistant (no detectable zone of inhibition)
# Method in brief: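 E. coli SBUG 1135 grown 17 h at 37° C, 180 rpm, diluted 1:100 and seeded in nutrient agar at ~10^6 cells. Discs loaded with 10, 50 or 100 μg compound (methanol or water); inhibition-zone diameter (mm) read after 20 h at 37° C.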
# [2] = system: Staphylococcus aureus ATCC 6538; assay: mouse infected with Staphylococcus aureus infection model (survival); format: in vivo, BALB/c mice
# Method: Method for Effectiveness In Vivo with the Mouse Infected with Staphylococcus aureus Model
# On Day 0, at least 3 BALB/c mice per test substance (Table 8) or controls are pretreated with cyclophosphamide (250 mg/kg) in 250 μl PBS inta peritoneal (i.p.).
# On Day 2, the animals again received 100 mg/kg i.p.
# On Day 2, a colony of the test germ is transferred from a growing agar plate (Müller-Hinton-Agar, Beckton Dickinson) into a flask with 10 ml CASO broth (CASO-B., Soyabean peptone-Casein peptone broth, SIFIN, 30 g/l) and is cultivated overnight at 37° C. and a shaking frequency of 250 rpm.
# On Day 3, the pre-culture (Vk) is diluted 1:50 with CASO-B and further cultivated ca. 2 hours until an extinction in the medium of 0.6 at a wavelength of 550 nm is reached. Then, it is grown 1× with PBS at room temperature and set again to an extinction of 0.6.
# At least 3 animals for a test substance or controls are infected with 10 μl/g body weight grown germs of a bacteria suspension with the extinction 0.6 (ca. 10^10-10^12 CFU, Colony forming units) i.p.
# After 30 minutes, antibiotic solution is injected into the mice in a volume of 200 μl PBS with 3% DMSO i.p. 6 hours later, the second antibiotic injection is performed at the same concentration. […]
# [3] = logP value by HPLC according to Donovan et al.; details: HPLC, methanol/0.1% phosphoric acid pH 2
# Method in brief: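 Reversed-phase HPLC at 18-24° C with a methanol/0.1% phosphoric acid pH 2 gradient, 10% to 100% methanol over 9.4 min, 1.5 mL/min. Analyte co-injected with methyl phenyl sulfonate and toluene standards. logP derived from analyte/standard retention-time relationships.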
Compound,Diameter of zone of inhibition ([1]; Quantity n 0.019),Diameter of zone of inhibition ([1]; Quantity n 0.1) [mm],Diameter of zone of inhibition ([1]; Quantity n 0.19) [mm],Diameter of zone of inhibition ([1]; Quantity n 0.029),Diameter of zone of inhibition ([1]; Quantity n 0.14) [mm],Diameter of zone of inhibition ([1]; Quantity n 0.29) [mm],Survival/tested mice n/n ([2]; 2 × 0.5 mg (25 mg/kg) i.p.),also measured
"7-[2-(2-carbamoyl-3,6-dioxocyclohexa-1,4-dienylamino)-2-(4-hydroxyphenyl)-acetylamino]-desacetoxycephalosporanic acid [1b]",r,14,18,,,,,Survival/tested mice n/n ([2]; 2 × 1.0 mg (50 mg/kg) i.p.): 6/6
CCOC(=O)C1=C(NC(C(=O)NC2C(=O)N3C(C(=O)O)=C(Cl)CSC23)c2ccccc2)C(=O)C=CC1=O (stereo not shown) [1l],18 mm,,28,,,,,Diameter of zone of inhibition ([1]; Quantity n 0.09): 24 mm; Survival/tested mice n/n ([2]; 2 × 1.0 mg (50 mg/kg) i.p.): 3/3
"3-chlorine-7-[2-(2-methoxycarbonyl-3,6-dioxocyclohexa-1,4-dienylamino)-2-phenyl-acetylamino]-8-oxo-1-thia-5-azabicyclo[4.2.0]oct-3-en-4-carboxylic acid [1k]",,,,18 mm,24,28,,Survival/tested mice n/n ([2]; 2 × 1.5 mg (75 mg/kg) i.p.): 3/3
"7-{2-[2-(2-hydroxyethylcarbamoyl)-3,6-dioxocyclohexa-1,4-dienylamino]-2-phenyl-acetylamino}-desacetoxycephalosporanic acid [1e]",,,,r^2,16,18,3/3,
"O=C(O)C1=C(Cl)CSC2C(NC(=O)C(NC3=C(C(=O)NCCO)C(=O)C=CC3=O)c3ccccc3)C(=O)N12 (stereo not shown) [1i, 3-chlorine-7-{2-[2-(2-hydroxyethylcarbamoyl)-3,6-dioxocyclohexa-1,4-dienylamino]-2-phenyl-acetylamino}-8-oxo-1-thia-5-azabicyclo[4.2.0]oct-3-en-4-carboxylic acid]",,,,18 mm,24,28,12/12,logP value [3]: 1.81
"CC1=C(C(=O)O)N2C(=O)C(NC(=O)C(NC3=C(C(N)=O)C(=O)C=CC3=O)c3ccccc3)C2SC1 (stereo not shown) [1f, 7-[2-(2-carbamoyl-3,6-dioxocyclohexa-1,4-dienylamino)-2-phenyl-acetylamino]-desacetoxycephalosporanic acid]",,14,,,,,3/3,Diameter of zone of inhibition ([1]; Quantity n 0.02): r; Diameter of zone of inhibition ([1]; Quantity n 0.2): 18 mm
"NC(=O)C1=C(NC(C(=O)NC2C(=O)N3C(C(=O)O)=C(Cl)CSC23)c2ccccc2)C(=O)C=CC1=O (stereo not shown) [1j, 3-chlorine-7-[2-(2-carbamoyl-3,6-dioxocyclohexa-1,4-dienylamino)-2-phenyl-acetylamino]-8-oxo-1-thia-5-azabicyclo[4.2.0]oct-3-en-4-carboxylic acid]",,26,,,,,3/3,Diameter of zone of inhibition ([1]; Quantity n 0.02): 18 mm; Diameter of zone of inhibition ([1]; Quantity n 0.2): 28 mm
"7-[2-(2-ethoxycarbonyl-3,6-dioxocyclohexa-1,4-dienylamino)-2-(4-hydroxyphenyl)-acetylamino]-desacetoxycephalosporanic acid [1d]",,,,r,12,16,4/6,
"7-{2-2-(2-hydroxyethylcarbamoyl)-3,6-dioxyocyclohexa-1,4-dienylamino]-2-(4-hydroxyphenyl)-acetylamino}-desacetoxycephalosporanic acid [1a]",r^2,14,16,,,,9/9,
